# Source: US20260166128A1, “HUMAN AMYLIN ANALOG, AND DERIVATIVE THEREOF AND USE THEREOF” (priority 2022, published 2026)
# Numbered stars: 1 amine (or outer) side, 2 acyl side, 3 side chain; on linkers, the order of the positions; unused ones are H or OH. Bridge positions count the residues as written; N and C are the ends. Square brackets hold non-standard residues; d marks the D form. Side chains are listed from the residue outwards. Peptide text beside a SMILES is read from it. * marks the point of attachment. C20 diacid = O=C(O)CCCCCCCCCCCCCCCCCCC(=O)*; C18 diacid = O=C(O)CCCCCCCCCCCCCCCCC(=O)*; γGlu = O=C(O)[C@H](CCC(=O)[*:2])N[*:1]; Hyp = O=C(O)[C@@H]1C[C@@H](O)CN1; Cit = NC(=O)NCCC[C@H](N)C(=O)O; AEEA = NCCOCCOCC(=O)O; Inp = O=C(O)C1CCNCC1
# Molecular target: T1, human amylin receptor (Homo sapiens, UniProt O60896+P30988)
# T1 construct: host or cells: CHO-K1/Ga15/AMY3 cells, further stably transfected with a CRE-luciferase plasmid
# T1 sequence (P30988 25-474): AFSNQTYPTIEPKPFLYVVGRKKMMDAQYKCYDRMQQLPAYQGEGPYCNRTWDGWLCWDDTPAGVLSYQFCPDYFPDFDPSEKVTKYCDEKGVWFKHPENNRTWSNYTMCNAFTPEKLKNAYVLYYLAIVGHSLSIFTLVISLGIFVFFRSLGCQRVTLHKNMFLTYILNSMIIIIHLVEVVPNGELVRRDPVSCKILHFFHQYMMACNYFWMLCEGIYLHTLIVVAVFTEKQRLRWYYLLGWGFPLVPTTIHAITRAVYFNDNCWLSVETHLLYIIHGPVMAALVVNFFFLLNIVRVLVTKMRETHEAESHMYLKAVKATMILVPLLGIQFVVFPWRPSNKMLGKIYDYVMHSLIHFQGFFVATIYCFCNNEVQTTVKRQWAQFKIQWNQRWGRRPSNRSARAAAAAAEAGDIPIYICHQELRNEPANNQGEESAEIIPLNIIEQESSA
# T1 sequence (O60896 24-148 partner): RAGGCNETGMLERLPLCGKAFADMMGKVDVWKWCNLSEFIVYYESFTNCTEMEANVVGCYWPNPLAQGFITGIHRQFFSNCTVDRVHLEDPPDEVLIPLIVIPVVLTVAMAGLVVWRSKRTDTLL
# Assay: Luciferase assay of amylin derivatives in amylin receptor/CRE-luc CHO cell line
# Format: cell-based
# Conditions: CHO-K1/Ga15/AMY3 CRE-luc cells, 24 hours incubation, F12 medium containing 10% FBS; read-out: EC50
# Experimental: The experiment was intended to detect the activity or efficacy of the amylin derivatives on a human amylin receptor in vitro by luciferase assay.
# 50 μL of growth medium (F12 medium containing 10% FBS) was added into each well of a white 96-well plate, and the stably transfected amylin/CRE-lue CHO cells were inoculated into the white 96-well plate at a density of about 20,000 cells/well for activity determination.
row,EC50,SMILES
1,0.032 nM,CC[C@H](C)[C@H](NC(=O)[C@@H]1CCCN1C(=O)CNC(=O)[C@H](CC(C)C)NC(=O)[C@H](CC(N)=O)NC(=O)[C@H](CC(N)=O)NC(=O)[C@H](CO)NC(=O)[C@H](CCCCNC(=O)COCCOCCNC(=O)CC[C@H](NC(=O)CCCCCCCCCCCCCCCCCCC(=O)O)C(=O)O)NC(=O)[C@H](Cc1c[nH]cn1)NC(=O)[C@H](CCCNC(=N)N)NC(=O)[C@H](CC(C)C)NC(=O)[C@H](Cc1ccccc1)NC(=O)[C@H](CC(=O)O)NC(=O)[C@H](C)NC(=O)[C@H](CC(C)C)NC(=O)[C@H](CCCNC(=N)N)NC(=O)[C@H](CCC(N)=O)NC(=O)[C@@H](NC(=O)[C@H](C)NC(=O)[C@@H]1CSSC[C@H](NC(=O)[C@@H](N)CCCNC(=N)N)C(=O)N[C@@H](CC(N)=O)C(=O)N[C@@H]([C@@H](C)O)C(=O)N[C@@H](C)C(=O)N[C@@H]([C@@H](C)O)C(=O)N1)[C@@H](C)O)C(=O)N[C@@H](CC(C)C)C(=O)N1CCC[C@H]1C(=O)N1CCC[C@H]1C(=O)N[C@H](C(=O)N[C@@H](CC(N)=O)C(=O)N[C@H](C(=O)NCC(=O)N[C@@H](CO)C(=O)N[C@@H](CC(N)=O)C(=O)N[C@H](C(=O)N1C[C@H](O)C[C@H]1C(N)=O)[C@@H](C)O)C(C)C)[C@@H](C)O [PD118] (H-RCNTATCATQRLADFLRHK([AEEA-γGlu-C20 diacid])SNNLGPILPPTNVGSNT[Hyp]-NH2; disulfide 2-7)
2,0.016 nM,CC[C@H](C)[C@H](NC(=O)[C@@H]1CCCN1C(=O)[C@H](CCCCN)NC(=O)[C@H](CC(C)C)NC(=O)[C@H](CC(N)=O)NC(=O)[C@H](CC(N)=O)NC(=O)[C@H](CO)NC(=O)[C@H](CO)NC(=O)[C@H](Cc1c[nH]cn1)NC(=O)[C@H](CCCNC(=N)N)NC(=O)[C@H](CC(C)C)NC(=O)[C@H](Cc1ccccc1)NC(=O)[C@H](CC(=O)O)NC(=O)[C@H](C)NC(=O)[C@H](CC(C)C)NC(=O)[C@H](CCCNC(=N)N)NC(=O)[C@H](CCC(N)=O)NC(=O)[C@@H](NC(=O)[C@H](C)NC(=O)[C@@H]1CSSC[C@H](NC(=O)[C@H](CCCCN)NC(=O)C2CCN(C(=O)COCCOCCNC(=O)COCCOCCNC(=O)CCCCCCCCCCCCCCCCCCC(=O)O)CC2)C(=O)N[C@@H](CC(N)=O)C(=O)N[C@@H]([C@@H](C)O)C(=O)N[C@@H](C)C(=O)N[C@@H]([C@@H](C)O)C(=O)N1)[C@@H](C)O)C(=O)N[C@@H](CC(C)C)C(=O)N1CCC[C@H]1C(=O)N1CCC[C@H]1C(=O)N[C@H](C(=O)N[C@@H](CC(N)=O)C(=O)N[C@H](C(=O)NCC(=O)N[C@@H](CO)C(=O)N[C@@H](CC(N)=O)C(=O)N[C@H](C(=O)N1C[C@H](O)C[C@H]1C(N)=O)[C@@H](C)O)C(C)C)[C@@H](C)O [PD180] ({C20 diacid-AEEA-AEEA-Inp}-KCNTATCATQRLADFLRHSSNNLKPILPPTNVGSNT[Hyp]-NH2; disulfide 2-7)
3,0.031 nM,CC[C@H](C)[C@H](NC(=O)[C@@H]1CCCN1C(=O)CNC(=O)[C@H](CC(C)C)NC(=O)[C@H](CC(N)=O)NC(=O)[C@H](CCCCNC(=O)CC[C@H](NC(=O)CCCCCCCCCCCCCCCCCCC(=O)O)C(=O)O)NC(=O)[C@H](CO)NC(=O)[C@H](CO)NC(=O)[C@H](Cc1c[nH]cn1)NC(=O)[C@H](CCCNC(=N)N)NC(=O)[C@H](CC(C)C)NC(=O)[C@H](Cc1ccccc1)NC(=O)[C@H](CC(=O)O)NC(=O)[C@H](C)NC(=O)[C@H](CC(C)C)NC(=O)[C@H](CCCNC(=N)N)NC(=O)[C@H](CCC(N)=O)NC(=O)[C@@H](NC(=O)[C@H](C)NC(=O)[C@@H]1CSSC[C@H](NC(=O)[C@@H](N)CCCNC(=N)N)C(=O)N[C@@H](CC(N)=O)C(=O)N[C@@H]([C@@H](C)O)C(=O)N[C@@H](C)C(=O)N[C@@H]([C@@H](C)O)C(=O)N1)[C@@H](C)O)C(=O)N[C@@H](CC(C)C)C(=O)N1CCC[C@H]1C(=O)N1CCC[C@H]1C(=O)N[C@H](C(=O)N[C@@H](CC(N)=O)C(=O)N[C@H](C(=O)NCC(=O)N[C@@H](CO)C(=O)N[C@@H](CC(N)=O)C(=O)N[C@H](C(=O)N1C[C@H](O)C[C@H]1C(N)=O)[C@@H](C)O)C(C)C)[C@@H](C)O [PD090] (H-RCNTATCATQRLADFLRHSSK([γGlu-C20 diacid])NLGPILPPTNVGSNT[Hyp]-NH2; disulfide 2-7)
4,0.035 nM,CC[C@H](C)[C@H](NC(=O)[C@@H]1CCCN1C(=O)[C@H](CCCCNC(=O)CC[C@H](NC(=O)CCCCCCCCCCCCCCCCCCC(=O)O)C(=O)O)NC(=O)[C@H](CC(C)C)NC(=O)[C@H](CC(N)=O)NC(=O)[C@H](CC(N)=O)NC(=O)[C@H](CO)NC(=O)[C@H](CO)NC(=O)[C@H](Cc1c[nH]cn1)NC(=O)[C@H](CCCNC(=N)N)NC(=O)[C@H](CC(C)C)NC(=O)[C@H](Cc1ccccc1)NC(=O)[C@H](CC(=O)O)NC(=O)[C@H](C)NC(=O)[C@H](CC(C)C)NC(=O)[C@H](CCCNC(=N)N)NC(=O)[C@H](CCC(N)=O)NC(=O)[C@@H](NC(=O)[C@H](C)NC(=O)[C@@H]1CSSC[C@H](NC(=O)[C@@H](N)Cc2c[nH]cn2)C(=O)N[C@@H](CC(N)=O)C(=O)N[C@@H]([C@@H](C)O)C(=O)N[C@@H](C)C(=O)N[C@@H]([C@@H](C)O)C(=O)N1)[C@@H](C)O)C(=O)N[C@@H](CC(C)C)C(=O)N1CCC[C@H]1C(=O)N1CCC[C@H]1C(=O)N[C@H](C(=O)N[C@@H](CC(N)=O)C(=O)N[C@H](C(=O)NCC(=O)N[C@@H](CO)C(=O)N[C@@H](CC(N)=O)C(=O)N[C@H](C(=O)N1C[C@H](O)C[C@H]1C(N)=O)[C@@H](C)O)C(C)C)[C@@H](C)O [PD078] (H-HCNTATCATQRLADFLRHSSNNLK([γGlu-C20 diacid])PILPPTNVGSNT[Hyp]-NH2; disulfide 2-7)
5,0.053 nM,CC[C@H](C)[C@H](NC(=O)[C@@H]1CCCN1C(=O)[C@H](CCCNC(N)=O)NC(=O)[C@H](CC(C)C)NC(=O)[C@H](CC(N)=O)NC(=O)[C@H](CC(N)=O)NC(=O)[C@H](CO)NC(=O)[C@H](CO)NC(=O)[C@H](Cc1c[nH]cn1)NC(=O)[C@H](CCCNC(=N)N)NC(=O)[C@H](CC(C)C)NC(=O)[C@H](Cc1ccccc1)NC(=O)[C@H](CC(=O)O)NC(=O)[C@H](C)NC(=O)[C@H](CC(C)C)NC(=O)[C@H](CCCNC(=N)N)NC(=O)[C@H](CCC(N)=O)NC(=O)[C@@H](NC(=O)[C@H](C)NC(=O)[C@@H]1CSSC[C@H](NC(=O)[C@H](CCCCN)NC(=O)CC[C@H](NC(=O)CCCCCCCCCCCCCCCCCCC(=O)O)C(=O)O)C(=O)N[C@@H](CC(N)=O)C(=O)N[C@@H]([C@@H](C)O)C(=O)N[C@@H](C)C(=O)N[C@@H]([C@@H](C)O)C(=O)N1)[C@@H](C)O)C(=O)N[C@@H](CC(C)C)C(=O)N1CCC[C@H]1C(=O)N1CCC[C@H]1C(=O)N[C@H](C(=O)N[C@@H](CC(N)=O)C(=O)N[C@H](C(=O)NCC(=O)N[C@@H](CO)C(=O)N[C@@H](CC(N)=O)C(=O)N[C@H](C(=O)N1CCC[C@H]1C(N)=O)[C@@H](C)O)C(C)C)[C@@H](C)O [PD171] ({C20 diacid-γGlu}-KCNTATCATQRLADFLRHSSNNL[Cit]PILPPTNVGSNTP-NH2; disulfide 2-7 (inferred))

# Same assay, conditions: EC50, CHO-K1/Ga15/AMY3 CRE-luc cells, 24 hours incubation, F12 medium containing 10% FBS
row,SMILES,EC50
1,CC[C@H](C)[C@H](NC(=O)[C@@H]1CCCN1C(=O)CNC(=O)[C@H](CC(C)C)NC(=O)[C@H](CC(N)=O)NC(=O)[C@H](CC(N)=O)NC(=O)[C@H](CO)NC(=O)[C@H](CCCCNC(=O)COCCOCCNC(=O)COCCOCCNC(=O)CC[C@H](NC(=O)CCCCCCCCCCCCCCCCC(=O)O)C(=O)O)NC(=O)[C@H](Cc1c[nH]cn1)NC(=O)[C@H](CCCNC(=N)N)NC(=O)[C@H](CC(C)C)NC(=O)[C@H](Cc1ccccc1)NC(=O)[C@H](CC(=O)O)NC(=O)[C@H](C)NC(=O)[C@H](CC(C)C)NC(=O)[C@H](CCCNC(=N)N)NC(=O)[C@H](CCC(N)=O)NC(=O)[C@@H](NC(=O)[C@H](C)NC(=O)[C@@H]1CSSC[C@H](NC(=O)[C@@H](N)CCCNC(=N)N)C(=O)N[C@@H](CC(N)=O)C(=O)N[C@@H]([C@@H](C)O)C(=O)N[C@@H](C)C(=O)N[C@@H]([C@@H](C)O)C(=O)N1)[C@@H](C)O)C(=O)N[C@@H](CC(C)C)C(=O)N1CCC[C@H]1C(=O)N1CCC[C@H]1C(=O)N[C@H](C(=O)N[C@@H](CC(N)=O)C(=O)N[C@H](C(=O)NCC(=O)N[C@@H](CO)C(=O)N[C@@H](CC(N)=O)C(=O)N[C@H](C(=O)N1C[C@H](O)C[C@H]1C(N)=O)[C@@H](C)O)C(C)C)[C@@H](C)O [PD101] (H-RCNTATCATQRLADFLRHK([AEEA-AEEA-γGlu-C18 diacid])SNNLGPILPPTNVGSNT[Hyp]-NH2; disulfide 2-7),0.012 nM
